According to ChEMBL document CHEMBL3639280, “2-Phenyl-1-[4-(2-Aminoethoxy)-Benzyl]-Indole and estrogen formulations” (2014):

Molecular target: T1, Estrogen receptor (Homo sapiens, UniProt P03372)
T1 sequence (P03372 whole entry): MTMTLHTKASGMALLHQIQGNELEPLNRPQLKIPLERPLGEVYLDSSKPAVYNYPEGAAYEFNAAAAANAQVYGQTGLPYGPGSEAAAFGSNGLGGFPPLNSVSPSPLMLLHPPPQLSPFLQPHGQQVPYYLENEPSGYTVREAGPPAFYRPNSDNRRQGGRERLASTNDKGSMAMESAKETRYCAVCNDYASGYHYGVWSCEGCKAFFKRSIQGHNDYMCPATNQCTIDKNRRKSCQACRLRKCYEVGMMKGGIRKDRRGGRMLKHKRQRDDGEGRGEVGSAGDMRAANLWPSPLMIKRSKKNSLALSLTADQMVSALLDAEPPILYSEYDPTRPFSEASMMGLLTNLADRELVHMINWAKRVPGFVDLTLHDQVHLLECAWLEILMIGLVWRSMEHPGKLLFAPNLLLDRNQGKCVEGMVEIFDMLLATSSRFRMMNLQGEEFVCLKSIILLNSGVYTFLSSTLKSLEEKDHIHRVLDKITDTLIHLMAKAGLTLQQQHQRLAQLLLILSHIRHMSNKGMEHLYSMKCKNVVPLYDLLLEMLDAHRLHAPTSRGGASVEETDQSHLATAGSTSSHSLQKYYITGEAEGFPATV
Assay: Binding Assay: The competition assay was performed in a 96-well plate (polystyrene*) which binds <2.0% of the total input [3H]-17beta-estradiol and each data point was gathered in triplicate. 100 uG/100 uL of the receptor preparation was aliquoted per well. A saturating dose of 2.5 nM [3H]17beta-estradiol+competitor (or buffer) in a 50 uL volume was added in the preliminary competition when 100x …

Cc1c(-c2ccc(O)cc2)n(Cc2ccc(OCCN3CC4CCC3C4)cc2)c2ccc(O)cc12 (stereo unspecified)
IC50: 1 nM
